Experimental data: patent US10844067B2, “Heterocyclic compounds as RET kinase inhibitors” (Cancer Research Technology Limited, priority 2016, dated 2020)
Like-named read-outs stand apart in the source and are kept apart here. One block for each compound: values may come before it.

Assays:
KDR = KDR (Homo sapiens (Human), UniProt P35968); assay: KDR enzyme assay (CisBio HTRF kinEASE); assay type: biochemical; conditions: ATP at Km
RET = RET (Homo sapiens (Human), UniProt P07949); assay: RET enzyme assay (CisBio HTRF kinEASE); assay type: biochemical; conditions: for IC50: ATP at Km
Chain of RET (P07949 29-1114): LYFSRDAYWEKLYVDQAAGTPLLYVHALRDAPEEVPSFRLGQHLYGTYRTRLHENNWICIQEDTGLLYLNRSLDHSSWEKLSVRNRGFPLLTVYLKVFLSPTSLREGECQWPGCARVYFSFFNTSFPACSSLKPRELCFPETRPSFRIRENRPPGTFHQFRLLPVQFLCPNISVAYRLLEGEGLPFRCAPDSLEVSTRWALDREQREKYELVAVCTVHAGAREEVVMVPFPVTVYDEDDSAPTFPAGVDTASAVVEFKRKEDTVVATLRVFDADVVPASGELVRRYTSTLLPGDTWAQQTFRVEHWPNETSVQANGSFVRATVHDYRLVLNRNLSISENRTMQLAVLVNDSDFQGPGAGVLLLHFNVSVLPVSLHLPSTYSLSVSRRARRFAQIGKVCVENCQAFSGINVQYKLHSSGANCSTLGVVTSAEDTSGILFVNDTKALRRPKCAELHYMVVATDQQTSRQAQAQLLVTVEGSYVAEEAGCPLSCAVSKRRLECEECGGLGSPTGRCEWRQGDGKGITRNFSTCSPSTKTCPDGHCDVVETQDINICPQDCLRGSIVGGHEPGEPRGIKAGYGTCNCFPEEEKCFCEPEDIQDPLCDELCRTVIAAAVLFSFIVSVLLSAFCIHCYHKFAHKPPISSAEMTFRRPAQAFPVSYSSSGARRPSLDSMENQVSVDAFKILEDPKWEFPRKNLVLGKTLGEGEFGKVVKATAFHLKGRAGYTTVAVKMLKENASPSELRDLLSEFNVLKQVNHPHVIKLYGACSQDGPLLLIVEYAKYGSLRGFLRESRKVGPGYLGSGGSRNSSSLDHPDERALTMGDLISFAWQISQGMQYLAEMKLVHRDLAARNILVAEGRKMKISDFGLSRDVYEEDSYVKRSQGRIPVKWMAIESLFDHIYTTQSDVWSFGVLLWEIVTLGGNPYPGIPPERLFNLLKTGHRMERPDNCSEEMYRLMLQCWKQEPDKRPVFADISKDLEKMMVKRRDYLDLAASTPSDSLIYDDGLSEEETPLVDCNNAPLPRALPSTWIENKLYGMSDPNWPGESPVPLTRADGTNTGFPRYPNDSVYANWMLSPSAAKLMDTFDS

RET^V804M = RET^V804M (Homo sapiens (Human), UniProt P07949, V804M); assay: RET^V804M enzyme assay; assay type: biochemical
Chain of RET^V804M (P07949 29-1114 V804M): as the sequence (P07949 29-1114) above, with V776M counted along it

[1] = target: BaF3 cell lines expressing KIF5B-RET (Homo sapiens, UniProt P07949); assay type: cell-based; conditions: read-out: RET Cell IC50
Chain of BaF3 cell lines expressing KIF5B-RET (P07949 29-1114 limits assumed, change not shown): as the sequence (P07949 29-1114) above
Experimental: (§1) The system originally developed by Daley and Baltimore^16 was used, whereby IL3-dependent BaF3 cells are modified to express an activated recombinant kinase. Following removal of IL3, the modified cells are dependent on the activity of the recombinant kinase for survival and proliferation. […] Following incubation of the cells for 48 hours at 37° C. in a humidified 5% CO2 atmosphere, viability was determined by addition of 10 μL CellTiter-Glo reagent (Promega) and measurement of luminescence.

[2] = tested on: BaF3 cell lines expressing KDR; assay: BaF3 cell assay, KDR (CellTiter-Glo viability); assay type: cell-based; conditions: Mus musculus, BaF3 cells expressing KDR, 48 hours
Experimental: as §1

RET^V804M Cell = assay: BaF3 cell assay, RET^V804M (CellTiter-Glo viability); assay type: cell-based; conditions: Mus musculus, RET^V804M cells, 48 hours
Experimental: as §1

[3] = tested on: Non-modified BaF3 cells (WT); assay: BaF3 cell assay, non-modified (WT) cells with IL3; conditions: Mus musculus, BaF3, 48 h, read-out: BaF3 IC50
Experimental: as §1

Chain of KDR (P35968 20-1356): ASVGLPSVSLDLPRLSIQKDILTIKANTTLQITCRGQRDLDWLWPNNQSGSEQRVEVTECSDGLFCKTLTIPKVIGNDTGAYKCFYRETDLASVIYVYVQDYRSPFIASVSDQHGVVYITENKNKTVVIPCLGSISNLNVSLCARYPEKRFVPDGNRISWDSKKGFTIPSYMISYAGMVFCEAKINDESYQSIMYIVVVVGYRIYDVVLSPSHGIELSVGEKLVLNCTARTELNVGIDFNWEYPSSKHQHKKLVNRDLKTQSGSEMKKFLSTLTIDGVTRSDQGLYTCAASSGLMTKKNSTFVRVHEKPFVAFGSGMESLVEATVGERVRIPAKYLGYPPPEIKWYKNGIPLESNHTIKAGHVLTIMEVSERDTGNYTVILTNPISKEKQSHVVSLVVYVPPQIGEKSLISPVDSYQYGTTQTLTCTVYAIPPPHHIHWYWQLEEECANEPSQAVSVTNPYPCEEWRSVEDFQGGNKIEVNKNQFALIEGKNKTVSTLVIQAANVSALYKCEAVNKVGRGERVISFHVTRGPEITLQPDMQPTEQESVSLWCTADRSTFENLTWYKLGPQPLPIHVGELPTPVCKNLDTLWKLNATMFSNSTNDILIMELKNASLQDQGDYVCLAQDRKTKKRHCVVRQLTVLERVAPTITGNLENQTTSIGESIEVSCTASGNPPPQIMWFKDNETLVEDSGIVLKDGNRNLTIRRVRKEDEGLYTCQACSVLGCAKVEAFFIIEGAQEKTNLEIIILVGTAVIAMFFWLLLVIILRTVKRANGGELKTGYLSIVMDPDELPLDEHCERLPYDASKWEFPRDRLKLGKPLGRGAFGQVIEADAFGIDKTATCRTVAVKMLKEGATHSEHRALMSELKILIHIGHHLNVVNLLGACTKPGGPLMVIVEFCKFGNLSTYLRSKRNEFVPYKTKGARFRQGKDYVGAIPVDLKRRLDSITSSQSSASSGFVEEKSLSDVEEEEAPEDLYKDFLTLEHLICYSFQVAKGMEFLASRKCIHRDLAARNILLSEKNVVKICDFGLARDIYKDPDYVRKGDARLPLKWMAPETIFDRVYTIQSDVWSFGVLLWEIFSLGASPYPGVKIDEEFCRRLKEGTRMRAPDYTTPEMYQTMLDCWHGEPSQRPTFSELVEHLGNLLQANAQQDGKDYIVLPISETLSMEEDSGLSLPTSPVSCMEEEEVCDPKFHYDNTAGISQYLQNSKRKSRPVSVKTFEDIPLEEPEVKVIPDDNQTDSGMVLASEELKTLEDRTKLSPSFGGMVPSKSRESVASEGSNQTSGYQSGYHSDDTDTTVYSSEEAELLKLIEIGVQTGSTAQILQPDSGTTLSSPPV

- IC50 (KDR): > 30000 nM
Structure (SMILES): CC(C)(C)OC(=O)N[C@H]1CC[C@@H](n2nc(-c3cc4cccnc4[nH]3)c3c(N)ncnc32)CC1 [Example 27, tert-Butyl N-[cis-4-(4-amino-3-{1H-pyrrolo[2,3-b]pyridin-2-yl}-1H-pyrazolo[3,4-d]pyrimidin-1-yl)cyclohexyl]carbamate]

- desired activity in the assays described in the Examples section (RET): did not exhibit the desired activity
Structure (SMILES): Nc1ncnc2c1c(-c1[nH]c3ncccc3c1Cl)nn2CC(=O)O [2-(4-amino-3-(3-chloro-1H-pyrrolo[2,3-b]pyridin-2-yl)-1H-pyrazolo[3,4-d]pyrimidin-1-yl)acetic acid]

Structure (SMILES): CS(=O)(=O)N1CCC(n2nc(-c3[nH]c4ccccc4c3Cl)c3c(N)ncnc32)CC1 [Example 4, 3-(3-Chloro-1H-indol-2-yl)-1-(1-methylsulfonyl-4-piperidyl)pyrazolo[3,4-d]pyrimidin-4-amine]
- IC50 (KDR): > 30000 nM

Structure (SMILES): CN(C)C1CCN(CCn2nc(-c3[nH]c4ncccc4c3Cl)c3c(N)ncnc32)CC1 [Example 77, 3-(3-Chloro-1H-pyrrolo[2,3-b]pyridin-2-yl)-1-(2-(4-(dimethylamino)piperidin-1-yl)ethyl)-1H-pyrazolo[3,4-d]pyrimidin-4-amine]
- IC50 (KDR): > 30000 nM

Structure (SMILES): CC(C)(C)OC(=O)N[C@H]1CC[C@H](n2nc(-c3cc4cccnc4[nH]3)c3c(N)ncnc32)CC1 [Example 28, tert-Butyl (trans-4-(4-amino-3-(1H-pyrrolo[2,3-b]pyridin-2-yl)-1H-pyrazolo[3,4-d]pyrimidin-1-yl)cyclohexyl)carbamate]
- IC50 (KDR): > 30000 nM

Structure (SMILES): Cn1nc(-c2[nH]c3ncccc3c2Cl)c2c(N)ncnc21 [Example 65, 3-(3-Chloro-1H-pyrrolo[2,3-b]pyridin-2-yl)-1-methyl-pyrazolo[3,4-d]pyrimidin-4-amine]
- desired activity in the assays described in the Examples section (RET): did not exhibit the desired activity
- IC50 (RET): > 30000 nM
- IC50 (RET^V804M): > 30000 nM
- IC50 [1]: 1010 nM

Structure (SMILES): Nc1ncnc2c1c(-c1[nH]c3ncccc3c1Cl)nn2C1CCCCC1 [Example 67, 3-(3-Chloro-1H-pyrrolo[2,3-b]pyridin-2-yl)-1-cyclohexyl-pyrazolo[3,4-d]pyrimidin-4-amine]
- IC50 (RET): > 30000 nM
- IC50 (RET^V804M): > 30000 nM
- IC50 [1]: 68.7 nM

Structure (SMILES): Nc1ncnc2c1c(-c1cc3cccnc3[nH]1)nn2[C@H]1CC[C@H](NC(=O)C2CC2)CC1 [Example 36, N-(trans-4-(4-Amino-3-(1H-pyrrolo[2,3-b]pyridin-2-yl)-1H-pyrazolo[3,4-d]pyrimidin-1-yl)cyclohexyl)cyclopropanecarboxamide]
- IC50 (KDR): > 30000 nM

Structure (SMILES): CC(C)n1nc(-c2cc3ccccc3[nH]2)c2c(N)ncnc21 [Example 44, 3-(1H-Indol-2-yl)-1-isopropyl-pyrazolo[3,4-d]pyrimidin-4-amine]
- IC50 (RET): 18.7 nM
- IC50 (KDR): 4570 nM
- IC50 (RET^V804M): 1870 nM
- IC50 ([1]; BaF3 cells expressing KIF5B-RET, 48 hours, CellTiter-Glo): 83.6 nM
- IC50 [2]: 2770 nM
- IC50 (RET^V804M Cell): 1470 nM
- IC50 [3]: 3630 nM

- desired activity in the assays described in the Examples section (RET): did not exhibit the desired activity
Structure (SMILES): CC(C)CCn1nc(-c2[nH]c3ccccc3c2Cl)c2c(N)ncnc21 [3-(3-Chloro-1H-indol-2-yl)-1-isopentyl-1H-pyrazolo[3,4-d]pyrimidin-4-amine]

- desired activity in the assays described in the Examples section (RET): did not exhibit the desired activity
Structure (SMILES): Nc1ncnc2c1c(-c1[nH]c3ccccc3c1Cl)nn2CC1CCNC1 (centres unmarked) [3-(3-chloro-1H-indol-2-yl)-1-(pyrrolidin-3-ylmethyl)-1H-pyrazolo[3,4-d]pyrimidin-4-amine]

- desired activity in the assays described in the Examples section (RET): did not exhibit the desired activity
Structure (SMILES): CC(C)(C)n1nc(-c2cc3ncccc3[nH]2)c2c(N)ncnc21 [1-tert-butyl-3-(1H-pyrrolo[3,2-b]pyridin-2-yl)pyrazolo[3,4-d]pyrimidin-4-amine]
